# Entries after “also recorded” stand apart in the source; their conditions may differ.
# How the values were obtained:
# [1] = molecular target: T1, MT2 than for MT1 subtypes of melatonin receptors (Homo sapiens, UniProt P49286); details: MT2 versus MT1 selectivity; cited from earlier work
# T1 sequence (P49286 1-362): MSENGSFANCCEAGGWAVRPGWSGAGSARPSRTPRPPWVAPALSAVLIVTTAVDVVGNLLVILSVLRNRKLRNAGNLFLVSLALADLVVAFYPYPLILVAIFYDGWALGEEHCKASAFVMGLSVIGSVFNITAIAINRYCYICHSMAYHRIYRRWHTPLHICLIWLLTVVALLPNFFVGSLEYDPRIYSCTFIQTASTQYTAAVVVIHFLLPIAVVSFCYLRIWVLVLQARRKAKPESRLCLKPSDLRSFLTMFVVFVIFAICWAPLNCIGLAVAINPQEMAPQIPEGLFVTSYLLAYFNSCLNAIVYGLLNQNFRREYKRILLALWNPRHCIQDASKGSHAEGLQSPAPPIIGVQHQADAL
# zebrafish embryos = details: cited from earlier work
# Zebrafish (D. rerio) = test: active-avoidance conditioning in a shuttle box: learning (trials to criteria) and 24 h retention score; assay type: in vivo
# Protocol: Zebrafish (D. rerio) were bred, raised and maintained by the experimenter at the University of Houston Animals Facility. Adult zebrafish are maintained in 2-liter modular aquaria (Marine Biotech) with continuous water exchange at 26-28° C. under 14:10 hours light:dark cycle. Eggs and larvae are maintained in beakers with daily water changes, under the same light:dark cycle and similar temperatures. Larval fish are fed with filtered paramecium. All animals, juvenile (>15 days) and adults are fed three times a day with live brine shrimp or flake. The *AB strain was originally obtained from the University of Oregon. All protocols were approved by the University of Houston Institutional Animal Care Use Committee. Zebrafish are trained on an active-avoidance conditioning paradigm using a modified shuttle box. Zebrafish must cross a hurdle to avoid electric shocks (3V; unconditioned stimulus) administered via electrodes 10 seconds after the onset of the conditioned stimulus which was a dim red light. Dim red lights are placed at the extremity of each compartment of the shuttle box. The light signal was kept on during each cycle lasting for 20 seconds in one compartment; subsequently, the conditioned and unconditioned stimuli changed to the other side of the shuttle box. Zebrafish must learn to escape the dark compartment and maintain in the compartment having the light stimulus on for the remaining trial period. Animals that respond correctly to the light signals in eight out of ten consecutive trials during the training period are designated learners. Training was terminated once Zebrafish achieve the learning criteria (i.e. swimming the compartment where the stimulus light was on and remain there until the light was switched off). […] Animals are tested 24 hours later under identical conditions to test for retention of the learned task. To quantitatively evaluate the ability of each learner to recall the active avoidance conditioning paradigm, a retention score was calculated using the algorithm of Piront and Schmidt [formula] The number of trials required to reach the learning criteria during the test session was subtracted from number of trials required to reach the learning criteria in the training session, divided by the number of trials in the test plus training sessions. Retention scores range from 0 to 1.0. […] Melatonin Blocks Long-Term Memory Formation During the Subjective Day This melatonin effect was tested by taking animals originally under 14:10 hours light:dark cycles and exposing them to constant darkness for 4 days. On the 3rd day of constant darkness and one hour prior to training at CT7 (corresponds to 4 pm) animals were bathed in increasing concentrations of melatonin (1 μM, 10 μM, 50 μM and 100 μM). Animals were then trained at CT8 for active avoidance conditioning and tested 24 hours later on the 4th day of constant darkness at CT8 for long-term memory formation. […] To test whether melatonin blocks long-term memory formation via melatonin receptor mediated signaling pathway, the following experiments were performed. Animals in their original 14:10 hours light:dark cycles were set under free running conditions of constant darkness and temperature (25° C.) for 4 days. […] Treatments comprising of melatonin and either of its antagonists (luzindole or K-185) do improve the retention score, going from 0.1 with melatonin alone to about 0.4 in the presence of a mixture of melatonin and luzindole and to about 0.3 in the presence of a mixture of melatonin and K-185. […] This means that the inhibitory action of melatonin was mediated via a melatonin receptor-signaling pathway. […] This effect was tested by blocking night time melatonin receptor mediated signaling pathways with increased concentrations of melatonin receptor antagonist, such as luzindole. Animals in 14:10 hours light:dark cycles were exposed to constant darkness and temperature (25° C.) for 4 days. […]
# C3H/HeN mice = details: more pronounced effect at midnight than midday; cited from earlier work
smiles,measurement,setting,value
"CCCC(=O)NCCc1c2n(c3ccc(OC)cc13)CCCc1ccccc1-2 [K-185, N-butanoyl-2-(5,6,7-trihydro-11-methoxy-benzo[3,4]cyclohept[2,1-a]indol-13-yl) ethanamine]",higher affinity for MT2 than for MT1,[1],> 140 fold
same,antagonism of the effect of melatonin on zebrafish development,zebrafish embryos,blocking the effect of melatonin on zebrafish development
"CC(=O)NCCc1c(Cc2ccccc2)[nH]c2ccccc12 [luzindole, N-Acetyl-2-benzyltryptamine]",retention score,"Zebrafish (D. rerio); 0.5 μM luzindole, 1 h at CT15, trained CT16, tested 24 h later (subjective night), FIG. 4b",less than 0.1
same,retention score,"Zebrafish (D. rerio); 1 μM luzindole, 1 h at CT15, trained CT16, tested 24 h later (subjective night), FIG. 4b",0.25
same,number of trials to reach learning criteria,"Zebrafish (D. rerio); luzindole at increasing concentration, 1 h at CT15, trained CT16 (subjective night), constant darkness, FIG. 4a",No significant difference; also recorded: remains the same
same,duration of immobility during swimming,C3H/HeN mice,decreases the duration of immobility during swimming
"COc1ccc2[nH]cc(CCNC(C)=O)c2c1 [melatonin, 5-OCH3 N-acetyltryptamine]",retention score,"Zebrafish (D. rerio); 100 μM melatonin, 1 h at CT7, trained CT8, tested 24 h later (subjective day), FIG. 2b",significantly reduced
same,long-term memory formation (retention score),"Zebrafish (D. rerio); low concentrations of melatonin, 1 h at CT7, tested 24 h after training at CT8",do not significantly block long-term memory formation
same,retention score,"Zebrafish (D. rerio); melatonin concentration over 50 μM, 1 h at CT7, tested 24 h after training at CT8 (subjective day)",around 0.1

# — patent publication US8372876B2, “Method for improving memory in mammals” (The University of Houston System, priority 2007, dated 2013)
